Several values for one entry are separate records, joined by “and”; a condition that tells them apart may be missing. Equal entries are not always repeated. Values belong to the compound of their own block, whether it stands above or below them.
Tested on: MCF7 complex spheroid growth, % test/control
Assay: Anticancer human tumor MCF7 cell line growth inhibition [Asc];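 note: spheroids exposed to compounds for 7 days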;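 for viability, T/C: 100% = DMSO vehicle control wells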
Conditions: for viability, T/C: stronger effect = lower value
Procedure, shortened: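 Tumor cells were grown as multicellular spheroids with stromal HUVEC and mesenchymal stem cells and treated singly or in combination. Concentrations fell in half-log steps from the clinical Cmax, or from 10 microM where none was known.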

IC50 (curve of first compound, second compound 0.00949 µM): 1380 nM | IC50 (curve of first compound, second compound 0.03 µM): 493 nM | IC50 (curve of first compound, second compound 0.0949 µM): < 9.49 nM | IC50 (curve of first compound, second compound 0.3 µM): < 9.49 nM | IC50 (curve of first compound, second compound 0.949 µM): < 9.49 nM | IC50 (curve of first compound, second compound 3 µM): < 9.49 nM
SMILES: Cc1nc(N2CCC3(CC2)COC(C)C3N)c(CO)nc1Sc1ccnc(N)c1Cl (centres undefined) + CCN1C(C(=O)NC23CCC(C(=O)O)(CC2)CC3)C(c2cccc(Cl)c2F)C2(C(=O)Nc3cc(Cl)ccc32)C12CCCCC2
viability, T/C (second compound 0.00949 µM, first compound 0.00949 µM): 109% | viability, T/C (second compound 0.00949 µM, first compound 0.03 µM): 115% | viability, T/C (second compound 0.00949 µM, first compound 0.0949 µM): 94.4% | viability, T/C (second compound 0.00949 µM, first compound 0.3 µM): 99.9% | viability, T/C (second compound 0.00949 µM, first compound 0.949 µM): 66.8% | viability, T/C (second compound 0.00949 µM, first compound 3 µM): 12.5% | viability, T/C (second compound 0.03 µM, first compound 0.00949 µM): 86.4% | viability, T/C (second compound 0.03 µM, first compound 0.03 µM): 79.1% | viability, T/C (second compound 0.03 µM, first compound 0.0949 µM): 88.5% | viability, T/C (second compound 0.03 µM, first compound 0.3 µM): 77.3% | viability, T/C (second compound 0.03 µM, first compound 0.949 µM): 14% | viability, T/C (second compound 0.03 µM, first compound 3 µM): 11.1% | viability, T/C (second compound 0.0949 µM, first compound 0.00949 µM): 50.3% | viability, T/C (second compound 0.0949 µM, first compound 0.03 µM): 41.9% | viability, T/C (second compound 0.0949 µM, first compound 0.0949 µM): 43.7% | viability, T/C (second compound 0.0949 µM, first compound 0.3 µM): 29.9% | viability, T/C (second compound 0.0949 µM, first compound 0.949 µM): 9.42% | viability, T/C (second compound 0.0949 µM, first compound 3 µM): 10.3% | viability, T/C (second compound 0.3 µM, first compound 0.00949 µM): 26% | viability, T/C (second compound 0.3 µM, first compound 0.03 µM): 22.8% | viability, T/C (second compound 0.3 µM, first compound 0.0949 µM): 20.8% | viability, T/C (second compound 0.3 µM, first compound 0.3 µM): 18.5% | viability, T/C (second compound 0.3 µM, first compound 0.949 µM): 5.2% | viability, T/C (second compound 0.3 µM, first compound 3 µM): 7.09% | viability, T/C (second compound 0.949 µM, first compound 0.00949 µM): 13.7% | viability, T/C (second compound 0.949 µM, first compound 0.03 µM): 13.6% | viability, T/C (second compound 0.949 µM, first compound 0.0949 µM): 12.8% | viability, T/C (second compound 0.949 µM, first compound 0.3 µM): 6.58% | viability, T/C (second compound 0.949 µM, first compound 0.949 µM): 5.44% | viability, T/C (second compound 0.949 µM, first compound 3 µM): 5.91% | viability, T/C (second compound 3 µM, first compound 0.00949 µM): 11.4% | viability, T/C (second compound 3 µM, first compound 0.03 µM): 8.37% | viability, T/C (second compound 3 µM, first compound 0.0949 µM): 10.1% | viability, T/C (second compound 3 µM, first compound 0.3 µM): 6.66% | viability, T/C (second compound 3 µM, first compound 0.949 µM): 6.63% | viability, T/C (second compound 3 µM, first compound 3 µM): 11.7%

IC50 (curve of compound): > 1000 nM
SMILES: O=C(c1ccc(F)c(F)c1Nc1ccc(I)cc1F)N1CC(O)([C@@H]2CCCCN2)C1
viability, T/C (compound 0.00316 µM): 104% and 101% and 102% | viability, T/C (compound 0.01 µM): 92.1% and 89.8% and 79.8% | viability, T/C (compound 0.0316 µM): 100% and 92.2% and 90.3% | viability, T/C (compound 0.1 µM): 99% and 111% and 102% | viability, T/C (compound 0.316 µM): 91.3% and 97.2% and 97.5% | viability, T/C (compound 1 µM): 86.5% and 89.6% and 87.4%

Source: PubChem BioAssay AID1963445 (Molecular Pharmacology Branch, DTP, NCI, 2024)
